Test results published in patent publication US8883801B2, “Substituted pyrazolo[1,5-a]pyrimidines as mTOR inhibitors” (Merck Sharp & Dohme Corp., priority 2010, dated 2014).
Where two headings read alike, the source gives them in different places.

What was measured:
[1] = tested on: mTORC1 activity: phosphorylated 4E-BP1 Thr37/46 (p4E-BP1 Thr37/46) in PC3 cells; assay: mTOR target engagement assay, immunofluorescent cell-based, mTORC1 readout; conditions: 90 min treatment, read-out: P4EBP1 IC50
Method in brief: (§1)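 Read-out is immunofluorescence intensity, normalized to DMSO-only wells and fitted to a sigmoidal Hill equation for IC50. The mTORC1 arm probes phospho-4E-BP1 Thr37/46 and the mTORC2 arm phospho-AKT Ser473.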

[2] = biological target: human mTOR enzyme (Homo sapiens, UniProt P42345); assay: HTRF mTOR enzyme (kinase) assay; assay type: biochemical; conditions: 5 μM ATP, 0.2 μM GST-S6K, read-out: hMTOR IC50
[3] = tested on: mTORC2 activity: phosphorylated AKT Ser473 (pAKT S473) in PC3 cells; assay: mTOR target engagement assay, immunofluorescent cell-based, mTORC2 readout; conditions: 90 min treatment
Method in brief: as §1

[4] = Homo sapiens, PC-3, 1.5 h, rated class
[5] = Homo sapiens, PC-3, 1.5 h, numeric value

Sequence of human mTOR enzyme (P42345 1360-2549 limits assumed): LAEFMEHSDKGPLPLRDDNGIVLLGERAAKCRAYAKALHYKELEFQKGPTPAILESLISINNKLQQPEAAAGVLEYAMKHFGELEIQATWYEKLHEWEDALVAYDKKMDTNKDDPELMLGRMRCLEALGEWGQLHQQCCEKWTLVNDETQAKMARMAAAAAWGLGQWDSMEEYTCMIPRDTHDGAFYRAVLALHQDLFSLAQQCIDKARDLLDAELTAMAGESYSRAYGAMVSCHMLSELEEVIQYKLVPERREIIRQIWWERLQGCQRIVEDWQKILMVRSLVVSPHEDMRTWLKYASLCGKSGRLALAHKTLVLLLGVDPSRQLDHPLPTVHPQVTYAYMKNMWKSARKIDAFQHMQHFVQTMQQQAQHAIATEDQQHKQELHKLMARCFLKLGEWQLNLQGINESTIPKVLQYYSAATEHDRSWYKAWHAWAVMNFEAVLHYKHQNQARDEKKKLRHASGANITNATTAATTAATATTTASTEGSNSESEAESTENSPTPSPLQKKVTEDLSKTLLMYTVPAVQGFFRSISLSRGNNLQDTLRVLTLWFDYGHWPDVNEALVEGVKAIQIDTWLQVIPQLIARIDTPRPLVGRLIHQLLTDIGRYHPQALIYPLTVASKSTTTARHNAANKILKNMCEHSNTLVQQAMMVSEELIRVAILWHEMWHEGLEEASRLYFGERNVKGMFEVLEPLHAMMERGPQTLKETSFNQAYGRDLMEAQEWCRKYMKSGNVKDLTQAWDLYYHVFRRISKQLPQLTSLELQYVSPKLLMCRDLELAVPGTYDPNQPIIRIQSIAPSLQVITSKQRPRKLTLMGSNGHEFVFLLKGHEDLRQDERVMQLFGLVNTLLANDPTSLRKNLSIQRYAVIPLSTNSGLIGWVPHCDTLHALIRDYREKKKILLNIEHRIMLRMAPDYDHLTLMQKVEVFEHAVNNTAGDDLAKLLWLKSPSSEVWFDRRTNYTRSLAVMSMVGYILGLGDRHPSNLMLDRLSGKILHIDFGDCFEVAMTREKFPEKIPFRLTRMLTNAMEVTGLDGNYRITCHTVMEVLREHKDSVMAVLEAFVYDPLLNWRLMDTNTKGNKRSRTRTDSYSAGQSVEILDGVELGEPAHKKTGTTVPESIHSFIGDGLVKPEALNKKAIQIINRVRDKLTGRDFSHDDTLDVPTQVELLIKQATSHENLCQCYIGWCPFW

COCCO[C@]1(C(=O)O)CC[C@@H](c2nc3c(-c4ccc(-c5ccn(C)n5)nc4)cnn3c(N)c2S(C)(=O)=O)CC1 [Compound 42, (1R,4R)-4-(7-amino-3-(6-(1-methyl-1H-pyrazol-3-yl)pyridin-3-yl)-6-(methylsulfonyl)-pyrazolo[1,5-a]-pyrimidin-5-yl)-1-(2-methoxyethoxy)-cyclohexanecarboxylic acid]
IC50 [1, 4]: 5000 to 15000 nM | IC50 ([2]; rated class): 1 to 100 nM | IC50 [3, 4]: 2000 to 5000 nM

COCCO[C@]1(C(=O)O)CC[C@@H](c2nc3c(-c4cnc(-c5ncc(C)s5)nc4)cnn3c(N)c2S(C)(=O)=O)CC1 [Compound 51, (1R,4R)-4-(7-amino-6-(methylsulfonyl)-3-(2-(5-methylthiazol-2-yl)pyrimidin-5-yl)pyrazolo[1,5-a]pyrimidin-5-yl)-1-(2-methoxyethoxy) cyclohexanecarboxylic acid]
IC50 [1, 4]: 1000 to 2000 nM | IC50 ([2]; rated class): 1 to 100 nM | IC50 [3, 4]: 100 to 1000 nM

COCCO[C@]1(C(=O)N(C)C)CC[C@@H](c2nc3c(-c4cnn(-c5ccccc5)c4)cnn3c(N)c2S(C)(=O)=O)CC1 [Compound 91, (1R,4R)-4-(7-amino-6-(methylsulfonyl)-3-(1-phenyl-1H-pyrazol-4-yl)pyrazolo[1,5-a]pyrimidin-5-yl)-1-(2-methoxyethoxy)-N,N-dimethylcyclohexane-carboxamide]
IC50 [1, 4]: 1000 to 2000 nM | IC50 ([2]; rated class): 1 to 100 nM | IC50 [3, 4]: 100 to 1000 nM

COCCO[C@]1(C(=O)O)CC[C@@H](c2nc3c(-c4ccc(-c5nccs5)nc4)cnn3c(N)c2S(C)(=O)=O)CC1 [Compound 47, (1R,4R)-4-(7-amino-6-(methylsulfonyl)-3-(6-(thiazol-2-yl)pyridin-3-yl)pyrazolo[1,5-a]pyrimidin-5-yl)-1-(2-methoxyethoxy) cyclohexanecarboxylic acid]
IC50 [1, 4]: 2000 to 5000 nM | IC50 ([2]; rated class): 1 to 100 nM | IC50 [3, 4]: 2000 to 5000 nM

COCCO[C@]1(C(=O)NO)CC[C@H](c2nc3c(-c4ccc(-c5ncc[nH]5)nc4)cnn3c(N)c2C(C)=O)CC1 [Compound 114]
IC50 [1, 4]: 100 to 1000 nM | IC50 ([2]; rated class): 1 to 100 nM | IC50 [3, 4]: 100 to 1000 nM

Nc1c(Br)c([C@H]2CC[C@@](OCCN3CCOCC3)(C(=O)O)CC2)nc2c(-c3cnn(-c4ccccc4)c3)cnn12 [Compound 67, (1R,4R)-4-(7-amino-6-bromo-3-(1-phenyl-1H-pyrazol-4-yl)pyrazolo[1,5-a]pyrimidin-5-yl)-1-(2-morpholinoethoxy) cyclohexanecarboxylic acid]
IC50 [1, 4]: 100 to 1000 nM | IC50 ([2]; rated class): 1 to 100 nM | IC50 [3, 4]: 100 to 1000 nM

CC(=O)c1c(C2CCC(O)(CO)CC2)nc2c(-c3ccc(-c4nccs4)nc3)cnn2c1N (stereo not drawn) [Compound 156, 1-(7-amino-5-(4-hydroxy-4-(hydroxymethyl)-cyclohexyl)-3-(6-(thiazol-2-yl)pyridin-3-yl)pyrazolo[1,5-a]pyrimidin-6-yl)ethanone]
IC50 [1, 4]: 100 to 1000 nM | IC50 ([2]; rated class): 1 to 100 nM | IC50 [3, 4]: 100 to 1000 nM

COCCO[C@]1(C(N)=O)CC[C@@H](c2nc3c(-c4ccc(-c5ccccc5)nc4)cnn3c(N)c2S(C)(=O)=O)CC1 [Compound 111]
IC50 [1, 5]: 141 nM | IC50 ([2]; numeric value): 1 nM | IC50 [3, 5]: 48 nM

COCCO[C@]1(C(=O)c2nnc[nH]2)CC[C@@H](c2cc(N)n3ncc(-c4ccc(-c5ccccc5)nc4)c3n2)CC1 [Compound 126, ((1R,4R)-4-(7-amino-3-(6-phenylpyridin-3-yl)pyrazolo[1,5-a]pyrimidin-5-yl)-1-(2-methoxyethoxy)cyclohexyl)(4H-1,2,4-triazol-3-yl)methanone]
IC50 [1, 4]: 1000 to 2000 nM | IC50 ([2]; rated class): 1 to 100 nM | IC50 [3, 4]: 100 to 1000 nM

COCCO[C@]1(C(=O)O)CC[C@@H](c2nc3c(-c4cnc5ccc(F)cc5c4)cnn3c(N)c2S(C)(=O)=O)CC1 [Compound 52, (1R,4R)-4-(7-amino-3-(6-fluoroquinolin-3-yl)-6-(methylsulfonyl)-pyrazolo[1,5-a]-pyrimidin-5-yl)-1-(2-methoxyethoxy)-cyclohexanecarboxylic acid]
IC50 [1, 4]: 100 to 1000 nM | IC50 ([2]; rated class): 1 to 100 nM | IC50 [3, 4]: 100 to 1000 nM

COCCO[C@]1(C(N)=O)CC[C@H](c2nc3c(-c4ccc(-c5ncc[nH]5)nc4)cnn3c(N)c2C(C)=O)CC1 [Compound 113, (1S,4S)-4-(3-(6-(1H-imidazol-2-yl)pyridin-3-yl)-6-acetyl-7-aminopyrazolo[1,5-a]pyrimidin-5-yl)-1-(2-methoxyethoxy) cyclohexanecarboxamide]
IC50 [1, 4]: 100 to 1000 nM | IC50 ([2]; rated class): 1 to 100 nM | IC50 [3, 4]: 100 to 1000 nM

COCCO[C@]1(C(=O)O)CC[C@@H](c2nc3c(-c4ccc(-c5ccc(O)c(F)c5)nc4)cnn3c(N)c2S(C)(=O)=O)CC1 [Compound 48, (1R,4R)-4-(7-amino-3-(6-(3-fluoro-4-hydroxyphenyl)pyridin-3-yl)-6-(methylsulfonyl)-pyrazolo[1,5-a]-pyrimidin-5-yl)-1-(2-methoxyethoxy)-cyclohexanecarboxylic acid]
IC50 [1, 4]: 5000 to 15000 nM | IC50 ([2]; rated class): 1 to 100 nM | IC50 [3, 4]: 5000 to 15000 nM

C[C@]1(C(=O)O)CC[C@H](c2nc3c(-c4ccc(-c5ccccc5)nc4)cnn3c(N)c2Br)CC1 [Compound 1, (1R,4R)-4-(7-amino-6-bromo-3-(6-phenylpyridin-3-yl)pyrazolo[1,5-a]pyrimidin-5-yl)-1-methylcyclohexanecarboxylic acid]
IC50 ([1]; numeric value): 850 nM | IC50 ([2]; numeric value): 1.33 nM | IC50 ([3]; numeric value): 275 nM

CO[C@]1(C(=O)O)CC[C@H](c2nc3c(-c4ccc(-c5ccccc5)nc4)cnn3c(N)c2C(C)=O)CC1 [Compound 34, (1S,4S)-4-(6-acetyl-7-amino-3-(6-phenylpyridin-3-yl)pyrazolo[1,5-a]pyrimidin-5-yl)-1-methoxycyclohexanecarboxylic acid]
IC50 [1, 4]: 100 to 1000 nM | IC50 ([2]; rated class): 1 to 100 nM | IC50 [3, 4]: 100 to 1000 nM

COCCO[C@]1(C(=O)O)CC[C@@H](c2nc3c(-c4cnc(-c5ccccc5)nc4)cnn3c(N)c2S(C)(=O)=O)CC1 [Compound 46, (1R,4R)-4-(7-amino-6-(methylsulfonyl)-3-(2-phenylpyrimidin-5-yl)pyrazolo[1,5-a]pyrimidin-5-yl)-1-(2-methoxyethoxy) cyclohexanecarboxylic acid]
IC50 [1, 4]: 5000 to 15000 nM | IC50 ([2]; rated class): 1 to 100 nM | IC50 [3, 4]: 5000 to 15000 nM

Nc1c(Br)c([C@H]2CC[C@@](O)(CC(=O)O)CC2)nc2c(-c3ccc(-c4ccccc4)nc3)cnn12 [Compound 76, 2-((1R,4R)-4-(7-amino-6-bromo-3-(6-phenylpyridin-3-yl)pyrazolo[1,5-a]pyrimidin-5-yl)-1-hydroxycyclohexyl)acetic acid]
IC50 [1, 4]: 100 to 1000 nM | IC50 ([2]; rated class): 1 to 100 nM | IC50 [3, 4]: 100 to 1000 nM

CNC(=O)[C@]1(OCCOC)CC[C@H](c2nc3c(-c4cnn(-c5ccccc5)c4)cnn3c(N)c2S(C)(=O)=O)CC1 [Compound 90, (1R,4R)-4-(7-amino-6-(methylsulfonyl)-3-(1-phenyl-1H-pyrazol-4-yl)pyrazolo[1,5-a]pyrimidin-5-yl)-1-(2-methoxyethoxy)-N-methylcyclohexane-carboxamide]
IC50 [1, 4]: 1000 to 2000 nM | IC50 ([2]; rated class): 1 to 100 nM | IC50 [3, 4]: 100 to 1000 nM

CC(=O)c1c(N)n2ncc(-c3ccc(-c4ccccc4)nc3)c2nc1[C@H]1CC[C@@](O)(CO)CC1 [Compound 139, 1-(7-amino-5-((1R,4R)-4-hydroxy-4-(hydroxymethyl)cyclohexyl)-3-(6-phenylpyridin-3-yl)pyrazolo[1,5-a]pyrimidin-6-yl)ethanone]
IC50 [1, 4]: 100 to 1000 nM | IC50 ([2]; rated class): 1 to 100 nM | IC50 [3, 4]: 100 to 1000 nM
